Data on eight molecules can be found in patent publication US20090214529A9, “KINESIN INHIBITORS” (TaiGen Biotechnology Co., Ltd., priority 2007, published 2009).

SMILES strings stand for the structures.

The subject of one assay is tumor cell. The assay can be described thus: Cytotoxicity assay (MTS). It counts as cell-based. As to conditions: 72 h; incubation for three days; read-out: IC50, tumor cell growth inhibition (MTS). The gist of the method: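 Tumour cells seeded overnight, then exposed to varying compound concentrations for three days. Viability read by MTS/PMS conversion to formazan (2 h, 37 °C, absorbance 490 nm). Results given as blank-corrected T/C (%) against vehicle controls.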

Assay [1] deals with human colon cancer cell line (Colo205) xenograft. The assay can be described thus: In vivo tumor growth inhibition assay, nude mice s.c. implanted tumor model. As to the method: The human colon cancer cell line (Colo205) obtained from the American Type Culture Collection (Rockville, Md.) was used for the xenograft model. The cell line was maintained in growth medium supplemented with L-glutamine, ribonucleosides, deoxyribonucleosides, 10% FCS, and the following antimicrobial agents: 100 IU/ml penicillin, […] streptomycin, and […] amphotericin B. Cultures were established in 75-cm^2 flasks (Costar, Cambridge, Mass.), maintained at 37° C. in a humidified atmosphere with 5% CO2 in air, and subcultured every 4˜7 days with 0.25% trypsin in HBSS (Invitrogen Life Technologies, Carlsbad, Calif.). For in vivo tumor growth, cells (1×10^7) suspended in 100 μl of PBS were inoculated in the flanks of 5-week-old female athymic BALB/cAnNCij-nu/nu mice (Charles River, Kanagawa, Japan). Seven days after inoculation (day 7), mice with tumors measuring 6-7 mm in diameter were randomly separated into 3 groups with five mice in each group. Compound 36 was dissolved in a vehicle (10% 40 mM sodium citrate, 5% Tween-80, 5% ethanol in saline) and intraperitoneally administered respectively to the groups of mice at the selected dose levels with the selected dosing regimen. A vehicle was administered to the third group of mice. Tumor size was measured twice weekly until day 30. Tumor volume (TV) was calculated as follows: volume=[length (mm)×width (mm)^2]×0.52. The tumor growth for each group was expressed by the median values of the ratio between the tumor volume measured at a specific day to the initial tumor volume measured at the day of first dosing.

The test system of the next assay is Human Colo205 cells. Description: Cell cycle arrest assay (flowcytometry, propidium iodide). Format: cell-based. The conditions noted are these: DNA content by flowcytometry. As to the method:
The efficacy of a test compound to arrest cells as a KSP inhibitor was determined by flowcytometry analysis. Human Colo205 cells were grown in 6-well plates and treated the next day with the test compound for various time lengths. They were then scraped from plates using a rubber policeman, washed with PBS, and centrifuged at 1,000 rpm for 5 minutes. 1 ML of a buffer containing 10 μM of propidium iodide and 50 ug/ml of RNase A was used to re-suspend the cells. The cells were subsequently incubated in this buffer for 10 minutes at room temperature in the dark, passed through a filter to remove cell clumps, and observed under a Coulter Epics XL-MCL Training Modules flowcytometer.

The IC50 is the concentration at which inhibition is half-maximal. For the molecule `Cc1ccc(C(=O)N(CCN)C(c2nc3c(oc4ccc(Cl)cc43)c(=O)n2Cc2ccccc2)C(C)C)cc1` (stereo not drawn) [Compound 36], the half-inhibitory concentration (IC50) in the assay on tumor cell is < 30 µM. Also, the “tumor growth inhibition (in words)” value in assay [1] (40 mg/Kg and 30 mg/Kg, intraperitoneal, q2dx5, Colo205 xenograft) is “significant tumor growth inhibition”. For the same molecule, the “tumor growth inhibition at day 10” value in assay [1] (40 mg/Kg and 30 mg/Kg, intraperitoneal, q2dx5, day 10) is on record as “more than 83%”. Also, in assay [1] (40 mg/Kg and 30 mg/Kg, intraperitoneal, q2dx5, day 13), the “tumor growth inhibition at day 13” value is reported as “more than 90%”. Also, in assay [1] (40 mg/Kg and 30 mg/Kg, intraperitoneal, q2dx5, day 16), the “tumor growth inhibition at day 16” value was “more than 92%”. Further, the “tumor inhibition, higher dose versus lower dose” value in assay [1] (40 mg/Kg compared with 30 mg/Kg, q2dx5) is “stronger tumor inhibition”.
On to `Cc1ccc(C(=O)N(CCN)C(c2nc3c(oc4ccc(F)cc43)c(=O)n2Cc2ccc(Br)s2)C(C)C)cc1` (stereo not drawn) [Compound 66], for which, in the assay on tumor cell, the half-inhibitory concentration (IC50) is < 30 µM. Besides, the “shift in cell cycle population” value in the assay with Human Colo205 cells is given as “shift in the population of cells from a G0/G1 stage (2N DNA content) to a G2/M stage (4N DNA content)”.
In the same order, the values of `Cc1ccc(C(=O)N(CCN)C(c2nc3c(oc4ccc(F)cc43)c(=O)n2Cc2ccc(Br)o2)C(C)C)cc1` (stereo not drawn) [Compound 81] are < 30 µM and “shift in the population of cells from a G0/G1 stage (2N DNA content) to a G2/M stage (4N DNA content)”.
On to `Cc1ccc(C(=O)N(CCN)C(c2nc3c(oc4ccc(F)cc43)c(=O)n2Cc2ccc(C#N)s2)C(C)C)cc1` (stereo not drawn) [Compound 83], for which, in the assay on tumor cell, the half-maximal inhibitory concentration (IC50) was < 30 µM. The “shift in cell cycle population” value with Human Colo205 cells is listed as “shift in the population of cells from a G0/G1 stage (2N DNA content) to a G2/M stage (4N DNA content)”.
For `Cc1ccc(C(=O)N(CCN)C(c2nc3c(oc4ccc(F)cc43)c(=O)n2Cc2cc(C)cs2)C(C)C)cc1` (stereo not drawn) [Compound 84], the IC50 in the assay with tumor cell was < 30 µM. The “shift in cell cycle population” value in the assay on Human Colo205 cells is “shift in the population of cells from a G0/G1 stage (2N DNA content) to a G2/M stage (4N DNA content)”. Besides, the “tumor growth inhibition at day 20” value in assay [1] (60 mg/Kg, q3dx3, day 20) was “more than 90%”.
`Cc1ccc(C(=O)N(CCN)C(c2nc3c(oc4ccc(F)cc43)c(=O)n2Cc2ccc(C(F)(F)F)o2)C(C)C)cc1` (stereo not drawn) [Compound 86]: the IC50 with tumor cell is < 30 µM. Also, the “shift in cell cycle population” value in the assay on Human Colo205 cells is reported as “shift in the population of cells from a G0/G1 stage (2N DNA content) to a G2/M stage (4N DNA content)”.
Take `Cc1csc(Cn2c(C(C(C)C)N(CCN)C(=O)c3ccc(C)c(F)c3)nc3c(oc4ccc(F)cc43)c2=O)c1` (stereo not drawn) [Compound 168]: the 50% inhibitory concentration (IC50) with tumor cell is < 30 µM. Further, the “shift in cell cycle population” value with Human Colo205 cells is “shift in the population of cells from a G0/G1 stage (2N DNA content) to a G2/M stage (4N DNA content)”.
In the same order, the values of `Cc1ccc(C(=O)N(CCN)[C@@H](c2nc3c(oc4ccc(F)cc43)c(=O)n2Cc2ccc(Br)o2)C(C)C)cc1` [Compound 177] are < 30 µM and “shift in the population of cells from a G0/G1 stage (2N DNA content) to a G2/M stage (4N DNA content)”.
